Source: ChEMBL document CHEMBL1151661, “Inhibitory effect of tannins on reverse transcriptase from RNA tumor virus” (J Nat Prod, 1985)
Active and inactive are the calls of the source. The calls are words filed in the database; no cut-off is given here.

How the values were obtained:
[1] = tested on: Avian myeloblastosis virus; assay: Inhibition of AMV reverse transcriptase activity assessed as incorporation of dGMP in poly(rC)-oligo(dG) at 1 uM; parameters: scale not given: the % may be the effect or the level left
[2] = tested on: Avian myeloblastosis virus; assay: Inhibition of AMV reverse transcriptase activity assessed as incorporation of dGMP in poly(rC)-oligo(dG) at 10 uM; parameters: scale not given: the % may be the effect or the level left
[3] = tested on: Avian myeloblastosis virus; assay: Inhibition of AMV reverse transcriptase activity assessed as incorporation of dTMP in poly(rA)-oligo(dT) at 100 uM; parameters: scale not given: the % may be the effect or the level left
[4] = tested on: Avian myeloblastosis virus; assay: Inhibition of AMV reverse transcriptase activity assessed as incorporation of dTMP in poly(rA)-oligo(dT) at 1 uM; parameters: scale not given: the % may be the effect or the level left
[5] = tested on: Avian myeloblastosis virus; assay: Inhibition of AMV reverse transcriptase activity assessed as incorporation of dGMP in poly(rC)-oligo(dG) at 100 uM; parameters: scale not given: the % may be the effect or the level left
[6] = tested on: Avian myeloblastosis virus; assay: Inhibition of AMV reverse transcriptase activity assessed as incorporation of dTMP in poly(rA)-oligo(dT) at 1000 uM; parameters: scale not given: the % may be the effect or the level left
[7] = tested on: Avian myeloblastosis virus; assay: Inhibition of AMV reverse transcriptase activity assessed as incorporation of dTMP in poly(rA)-oligo(dT) at 10 uM; parameters: scale not given: the % may be the effect or the level left
[8] = tested on: Avian myeloblastosis virus; assay: Inhibition of AMV reverse transcriptase activity assessed as incorporation of dGMP in poly(rC)-oligo(dG) at 1000 uM; parameters: scale not given: the % may be the effect or the level left
[9] = tested on: Avian myeloblastosis virus; assay: Inhibition of AMV reverse transcriptase activity assessed as incorporation of dTMP in poly(rA)-oligo(dT) at 0.1 uM; parameters: scale not given: the % may be the effect or the level left
[10] = tested on: Avian myeloblastosis virus; assay: Inhibition of AMV reverse transcriptase activity assessed as incorporation of dGMP in poly(rC)-oligo(dG) at 0.1 uM; parameters: scale not given: the % may be the effect or the level left
Bos taurus [11] = organism: Bos taurus; assay: Inhibition of calf thymus DNA polymerase-alpha activity using activated calf thymus DNA at 10 uM
[12] = tested on: Avian myeloblastosis virus; assay: Inhibition of AMV reverse transcriptase activity assessed as DNA synthesis treated at 100 uM after 5 mins of initiation of DNA synthesis
Bos taurus [13] = organism: Bos taurus; assay: Inhibition of calf thymus DNA polymerase-alpha activity using activated calf thymus DNA at 1000 uM

Row | Compound | Activity [1] | Activity [2] | Activity [3] | Activity [4] | Activity [5] | Activity [6] | Activity [7] | Activity [8] | Activity [9] | Activity [10] | Activity (Bos taurus [11]) | Activity [12] | Activity (Bos taurus [13])
1 | Oc1cc(O)c2c(c1)O[C@H](c1ccc(O)c(O)c1)[C@H](O)[C@H]2c1c(O)cc(O)c2c1O[C@H](c1ccc(O)c(O)c1)[C@H](O)C2 | 93% | 80% | 98% | 116% | 64% | 55% | 97% | 9% | 102% | 85% |  |  | 
2 | O=C[C@@H]1OC(=O)c2c3c(O)c(O)c(O)c2-c2c(cc(O)c(O)c2O)C(=O)O[C@H]1[C@@H]1OC(=O)c2c(c(O)c(O)c(O)c2-c2c(cc(O)c(O)c2O)C(=O)O[C@H]1COC(=O)c1cc(O)c(O)c(O)c1)O[C@H]1[C@@H]2OC(=O)c4cc(O)c(O)c(O)c4-c4c(cc(O)c(O)c4O)C(=O)O[C@H]2[C@H](OC(=O)c2cc(O)c(O)c(O)c2)O[C@@H]1CO3 | 73% | 22% | 5% | 24% | 14% | 3% | 4% | 20% | 66% | 106% |  |  | 
3 | O=C(O[C@@H]1O[C@@H]2COC(=O)c3cc(O)c(O)c(O)c3-c3c(cc(O)c(O)c3O)C(=O)O[C@H]([C@H]1O)[C@@H]2O)c1cc(O)c(O)c(O)c1 | 72% | 64% | 25% | 92% | 30% | 3% | 88% | 0% | 88% | 92% |  |  | 
4 | O=C1OC[C@H]2O[C@@H](O)[C@H](O)[C@@H](O)[C@@H]2OC(=O)c2cc(O)c(O)c(O)c2-c2c(O)c(O)c3oc(=O)c4c(c(O)c(O)c5oc(=O)c2c3c54)-c2c1cc(O)c(O)c2O | 109% | 64% | 8% | 62% | 31% | 1% | 35% | 6% | 119% | 105% |  |  | 
5 | O=C(O)C[C@H]1C(=O)O[C@H]2[C@H](OC(=O)c3cc(O)c(O)c(O)c3)[C@@H](OC(=O)c3cc(O)c(O)c4c3[C@H]1[C@H](O)C(=O)O4)[C@H](OC(=O)c1cc(O)c(O)c(O)c1)O[C@@H]2COC(=O)c1cc(O)c(O)c(O)c1 | 67% | 46% | 24% | 71% | 27% | 8% | 22% | 1% | 109% | 75% |  |  | 
6 | O=C[C@H](OC(=O)c1cc(O)c(O)c(O)c1)[C@@H](OC(=O)c1cc(O)c(O)c(O)c1)[C@@H]1OC(=O)c2cc(O)c(O)c(O)c2-c2c(cc(Oc3c(C(=O)O[C@@H](C=O)[C@@H](OC(=O)c4cc(O)c(O)c(O)c4)[C@@H]4OC(=O)c5cc(O)c(O)c(O)c5-c5c(cc(O)c(O)c5O)C(=O)OC[C@H]4O)cc(O)c(O)c3O)c(O)c2O)C(=O)OC[C@H]1O | 76% | 22% | 6% | 19% | 10% | 6% | 4% | 15% | 82% | 105% |  |  | 
7 | O=C(OC[C@H]1O[C@@H](OC(=O)c2cc(O)c(O)c(O)c2)[C@H](OC(=O)c2cc(O)c(O)c(O)c2)[C@@H](OC(=O)c2cc(O)c(O)c(O)c2)[C@@H]1OC(=O)c1cc(O)c(O)c(O)c1)c1cc(O)c(O)c(O)c1 | 62% | 44% | 25% | 39% | 27% | 7% | 30% | 15% | 67% | 80% |  |  | 
8 | O=C(O)c1cc(O)c(O)c(O)c1 | 103% | 99% | 75% | 93% | 91% | 78% | 75% | 98% | 84% | 122% |  |  | 
9 | COc1cc2c[n+](C)c3c4cc5c(cc4ccc3c2cc1OC)OCO5 | 85% | 88% | 1% | 102% | 5% | 1% | 11% | 2% | 85% | 116% |  |  | 
10 | O=C1O[C@@H]2[C@@H](OC(=O)c3cc(O)c(O)c(O)c3-c3c1cc(O)c(O)c3O)[C@H](O)O[C@@H]1COC(=O)c3cc(O)c(O)c(O)c3-c3c(O)c(O)c4oc(=O)c5c(c(O)c(O)c6oc(=O)c3c4c65)-c3c(cc(O)c(O)c3O)C(=O)O[C@@H]21 | 76% | 18% | 11% | 22% | 9% | 2% | 19% | 4% | 85% | 85% |  |  | 
11 | O=c1oc2c(O)c(O)cc3c(=O)oc4c(O)c(O)cc1c4c23 | 80% | 49% | 18% | 77% | 20% | 0% | 45% | 3% | 93% | 71% |  |  | 
12 | O=C1O[C@H]2[C@@H]3OC(=O)c4cc(O)c(O)c(O)c4-c4c(cc(O)c(O)c4O)C(=O)OC[C@H]2O[C@@H](OC(=O)c2cc(O)c(O)c(O)c2)[C@@H]3OC(=O)c2cc(O)c(O)c3c2[C@@H]2C1=CC(=O)[C@](O)(O3)C2(O)O | 93% | 62% | 6% | 39% | 15% | 6% | 12% | 12% | 89% | 103% | inactive | Active | Active
13 | O=C1OC[C@H]2OC(O)[C@@H]3OC(=O)c4cc(O)c(O)c(O)c4-c4c(cc(O)c(O)c4O)C(=O)O[C@H]3[C@@H]2OC(=O)c2cc(O)c(O)c(O)c2-c2c1cc(O)c(O)c2O (stereo partly drawn) | 73% | 41% | 17% | 51% | 7% | 4% | 15% | 10% | 88% | 80% |  |  | 
14 | O=C(O[C@@H]1O[C@@H]2COC(=O)c3cc(O)c(O)c(O)c3-c3c(cc(O)c(O)c3O)C(=O)O[C@H]2[C@H](OC(=O)c2cc(O)c(O)c(O)c2)[C@H]1OC(=O)c1cc(O)c(O)c(O)c1)c1cc(O)c(O)c(Oc2c(C(=O)O[C@H]3O[C@@H]4COC(=O)c5cc(O)c(O)c(O)c5-c5c(cc(O)c(O)c5O)C(=O)O[C@H]4[C@H](OC(=O)c4cc(O)c(O)c(O)c4)[C@H]3OC(=O)c3cc(O)c(O)c(O)c3)cc(O)c(O)c2O)c1 | 68% | 13% | 4% | 25% | 8% | 1% | 11% | 1% | 73% | 102% |  |  | 
15 | O=C(O)C[C@@H]1C(=O)O[C@H]2[C@@H]3OC(=O)c4cc(O)c(O)c(O)c4-c4c(cc(O)c(O)c4O)C(=O)OC[C@H]2O[C@@H](OC(=O)c2cc(O)c(O)c(O)c2)[C@@H]3OC(=O)c2cc(O)c(O)c3c2[C@H]1[C@H](O)C(=O)O3 | 67% | 74% | 31% | 90% | 68% | 6% | 48% | 8% | 106% | 94% |  |  | 
16 | O=C(O[C@H]1O[C@@H]2COC(=O)c3cc(O)c(O)c(O)c3-c3c(cc(O)c(O)c3O)C(=O)O[C@H]2[C@@H]2OC(=O)c3cc(O)c(O)c(O)c3-c3c(cc(O)c(O)c3O)C(=O)O[C@@H]12)c1cc(O)c(O)c(Oc2c(C(=O)O[C@H]3O[C@@H]4COC(=O)c5cc(O)c(O)c(O)c5-c5c(cc(O)c(O)c5O)C(=O)O[C@H]4[C@@H]4OC(=O)c5cc(O)c(O)c(O)c5-c5c(cc(O)c(O)c5O)C(=O)O[C@@H]34)cc(O)c(O)c2O)c1 | 68% | 7% | 19% | 27% | 5% | 2% | 20% | 6% | 86% | 80% |  |  | 
17 | O=C(O[C@@H]1O[C@@H]2COC(=O)c3cc(Oc4c(C(=O)O[C@@H]5O[C@@H]6COC(=O)c7cc(O)c(O)c(O)c7-c7c(cc(O)c(O)c7O)C(=O)O[C@H]6[C@H](OC(=O)c6cc(O)c(O)c(O)c6)[C@H]5OC(=O)c5cc(O)c(O)c(O)c5)cc(O)c(O)c4O)c(O)c(O)c3-c3c(cc(O)c(O)c3O)C(=O)O[C@H]2[C@H](OC(=O)c2cc(O)c(O)c(O)c2)[C@H]1OC(=O)c1cc(O)c(O)c(O)c1)c1cc(O)c(O)c(O)c1 | 54% | 12% | 5% | 16% | 12% | 6% | 7% | 2% | 55% | 111% |  |  | 
